Measurements published in patent US10501458B2, “Substituted bicyclic fused ring compounds as indoleamine-2,3-dioxygenase inhibitors” (Merck Sharp & Dohme Corp., priority 2015, dated 2019).

How the values were obtained:
[1] = target: T1, IDO1 (Homo sapiens (Human), UniProt P14902); assay: IDO1 Enzyme Assay; assay type: biochemical; details: HIS-tagged recombinant IDO1, tryptophan substrate, fluorescence readout; for IC50: read-out: IDO1 Enzyme, pIC50 (converted)
Experimental: Compounds to be tested were serially diluted in ten 3-fold steps in DMSO starting from 10 mM DMSO stocks. Compound dilutions or DMSO alone were then dispensed from the dilution plate into a Greiner black 384-well assay plate (catalog #781086) using an Echo 555 acoustic liquid handler (Labcyte).
HIS-tagged IDO1 protein was recombinantly expressed in Escherichia coli using ZYP5052 autoinduction media supplemented with 500 μM delta aminolevulinic acid for 48 hours at 16 degrees Celsius. IDO1 protein was purified using Ni^2+-affinity resin and size exclusion chromatography. Purified protein was then diluted in assay buffer (50 mM Tris pH 7.0, 1% glycerol, 20 uM methylene blue, 0.05% Tween-20, 20 mM sodium ascorbate, 100 units/mL catalase to obtain a final IDOL concentration of 40 nM. IDOL solution ([…]) or buffer alone ([…]) were dispensed to wells of the assay plate using a BioRAPTR liquid dispenser (Beckman Coulter). Assay plates containing compound and IDO1 enzyme were incubated at room temperature for 30 minutes. Afterwards, 10 μL of 400 μM tryptophan in assay buffer were added to each well of the assay plate using a BioRAPTR liquid dispenser. Plates were incubated at room temperature for 60 minutes and reactions were quenched by addition of 10 μL of 0.5 M methyl isonipecotate in dimethyl sulfoxide. Plates were sealed and incubated at 37 degrees Celsius for 4 hours or 50 degrees Celsius for 2 hours. The plates are allowed to cool and then centrifuged for 1 minute at 1000×g. The resulting fluoresence was measured in an Envision plate reader (Perkin Elmer) with a 400/25 nm excitation filter and an 510/20 nm emission filter.
Potencies were calculated by linear least squares fit to the four parameter logistic IC50 equation.

[2] = target: T1, IDO1; assay: IDO1 HEK293 Cellular Assay; assay type: cell-based; details: HEK293 cells transfected with Flag-IDO1, 200 μM L-Tryptophan, 20-24 hours; for IC50: read-out: HEK293 cell, pIC50 (converted)
Experimental: IDO1 HEK293 Cellular Assay
Compounds to be tested were serially diluted in ten 3-fold steps in DMSO starting from 10 mM DMSO stocks. Compound dilutions or DMSO alone were then dispensed from the dilution plate into a Greiner black 384-well assay plate (catalog #781086) using an Echo 550 acoustic liquid handler (Labcyte).
HEK293 cell pellets were resuspended to 5×10^5 cells/mL in complete HEK293 culture media (89% DMEM, 10% FBS, 1% penicilllin/streptomycin). Suspended cells (2 mL) were dispensed into each well of a 6-well Corning plate (Catalog#3516). Cells were allowed to attach and were incubated for 20 hours at 37 degrees Celsius in a 5% CO2 incubator. Flag-IDO1 vector (Genscript True ORF Gold, 2 ug) in 150 uL of Opti-MEM medium was added to each well of a Corning 24 well plate (Cat#3527) and incubated for 5 minutes at room temperature. To each well of the 24-well plate was added 150 μL Lipofectamine 2000 (Gibco) and the plate incubated at room temperature for 20-30 minutes. To each well of attached cells in the 6-well plate, 250 μL of the transfection mix from the 24well plate was gently added to each well and IDO1 protein was allowed to express for 24-30 hours at 37 degrees Celsius in a 5% CO2 incubator.
Media was removed from the cells which were then washed with 2 mL Dulbecco's phosphate-buffered saline (DPBS). After removal of DPBS, 0.5 mL of TrypLE (Gibco) was added and incubated at 5 minutes until cells lift from the surface of the wells. Complete HEK293 culture media (4 mL) was added to each well and cells were collected and pooled into a conical tube. Cells were pelleted at 200×g for 5 minutes and resuspended in an equal volume of complete DMEM medium. Cells were diluted to 4×10^5 cells per mL in complete HEK293 media. L-Tryptophan was added to added to give a final concentraiton of 200 μM. The diluted transfected cells (50 μL) or nontransfected cells (50 μL) were dispensed into wells of Greiner black 384-well assay plates (catalog #781086) containing previously diluted compounds. The plate is briefly mixed and centrifuged at 200×g for 10 seconds to collect cells at the bottom of the plate. Plates were covered and incubated for 20-24 hours at 37 degrees C. in a 5% CO2 incubator. Afterwards 10 μL of 0.5 M methyl isonipecotate in dimethyl sulfoxide was added to each well, mixed, sealed, and centrifuged at 500 rpm for 10 seconds. Plates were incubated at 37 degrees in a 5% CO2 incubator overnight to develop fluoresence. The plates are allowed to cool and then centrifuged for 1 minute at 1000×g. The resulting fluoresence was measured in an Envision plate reader (Perkin Elmer) with a 400/25 nm excitation filter and an 510/20 nm emission filter.
The fluoresence intensity of each well was corrected for the background observed in wells with untransfected cells and was expressed as a fraction of the intensity observed in wells of IDO1 transfected cells and DMSO only. Potencies were calculated by linear least squares fit to the four parameter logistic IC50 equation.

[3] = target: T2, IDO (Homo sapiens (Human), UniProt P14902); assay: SKOV3 kynurenine cell-based assay (IDO induced by IFN-γ); details: SKOV3 human ovarian adenocarcinoma cells, 500 ng/ml IFN-γ, 500 μM L-tryptophan, 48 hours
Experimental: (§1) Exemplary compounds of the invention were prepared, and tested to determine their effect as TDO and/or IDO inhibitors. Two different assays were employed: 1. a cell-based assay for detecting the effect of test compounds on kynurenine production in two different cancer cell types. This assay utilised cancer cells which expressed either TDO or IDO and as such was used as a means of testing compound activity at these two enzymes in a cell-based context. 2. a TDO and IDO biochemical coupled assay which utilised recombinantly produced and purified TDO and IDO enzymes in combination with the enzyme formamidase. This coupled enzyme system allowed conversion of N-formylkynurenine produced by TDO or IDO activity to kynurenine which was then quantified by fluorescence following addition of Erhlich's Reagent The protocols for these are set out below.
(§2) Cell Based Assay for Detection of Kynurenine Produced by TDO and/or IDO
(§3) A172 (human glioblastoma) and SKOV3 (human ovarian adenocarcinoma) cells were seeded in a 96 well plate at 30,000 or 40,000 cells per well respectively in phenol red-free RPMI supplemented with 10% FCS, 2 mM L-glutamine and 500 μM L-tryptophan. IDO expression was induced in the SKOV3 cells by the addition of 500 ng/ml IFN-γ. Cells were incubated at 37° C. with or without the addition of test compound. After 48 hours, the cells were removed by centrifugation and Erhlich's reagent was added to the supernatant. The Erhlich's reagent was incubated for 5 minutes before the absorbance was read at 490 nm.

[4] = target: T3, TDO (Homo sapiens (Human), UniProt P48775); assay: A172 kynurenine cell-based assay; details: A172 human glioblastoma cells, 500 μM L-tryptophan, 48 hours
Experimental: as §1, §2, §3

[5] = target: T3, TDO; assay: hTDO biochemical coupled assay; details: 330 μM L-tryptophan, 17 minutes at room temperature
Experimental: as §1
(§4) TDO and IDO Biochemical Coupled Assay
(§5) Recombinant human IDO or TDO was incubated in 50 mM KPO4 (pH 7.0), 0.5 mM EGTA, 0.5 mM EDTA, 0.05% Triton™ X100, 20 mM ascorbate, 10 μM methylene blue, 500 U/ml catalase, 50 μg/ml KynB (kynurenine formamidase). TDO assays were carried out in the presence of 330 μM L-tryptophan, while IDO assays had the addition of 45 μM L-tryptophan. After incubation for 17 minutes at room temperature the reactions were stopped by the addition of Erhlich's reagent and incubated at room temperature for 5 minutes before the fluorescence was read (Ex 475, Em530).

[6] = target: T2, IDO; assay: hIDO biochemical coupled assay; details: 45 μM L-tryptophan, 17 minutes at room temperature
Experimental: as §1, §4, §5

T2 sequence (P14902 whole entry): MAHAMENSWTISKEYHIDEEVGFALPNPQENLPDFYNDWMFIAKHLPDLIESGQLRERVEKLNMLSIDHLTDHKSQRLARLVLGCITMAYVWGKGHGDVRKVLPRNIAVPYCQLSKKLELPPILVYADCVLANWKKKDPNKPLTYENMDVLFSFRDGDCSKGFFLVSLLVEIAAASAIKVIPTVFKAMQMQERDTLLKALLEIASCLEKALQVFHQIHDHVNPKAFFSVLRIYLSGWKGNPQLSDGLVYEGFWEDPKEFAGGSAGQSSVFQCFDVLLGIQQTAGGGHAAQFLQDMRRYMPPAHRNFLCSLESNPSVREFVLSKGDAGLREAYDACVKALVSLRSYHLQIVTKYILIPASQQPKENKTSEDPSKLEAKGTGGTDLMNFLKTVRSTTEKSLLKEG
T1 sequence (P14902 whole entry): as above
T3 sequence (P48775 whole entry): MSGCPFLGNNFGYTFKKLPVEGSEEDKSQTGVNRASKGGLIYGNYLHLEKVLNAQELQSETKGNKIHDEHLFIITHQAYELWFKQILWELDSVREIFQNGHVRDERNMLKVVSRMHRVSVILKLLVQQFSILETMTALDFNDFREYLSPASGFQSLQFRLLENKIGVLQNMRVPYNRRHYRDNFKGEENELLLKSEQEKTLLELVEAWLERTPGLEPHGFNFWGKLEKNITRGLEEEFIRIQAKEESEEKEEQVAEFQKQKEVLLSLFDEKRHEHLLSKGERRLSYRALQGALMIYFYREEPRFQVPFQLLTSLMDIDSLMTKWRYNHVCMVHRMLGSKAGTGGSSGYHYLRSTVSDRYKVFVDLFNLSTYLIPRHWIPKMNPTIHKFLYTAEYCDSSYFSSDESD

IC50 [1] [nM]	IC50 [2] [nM]	SKOV3 Kynurenine cell based assay, pIC50 [3]	A172 Kynurenine cell based assay, pIC50 [4]	Compound	also measured
–	–	+++ (+++ = pIC50 ≥5.50)	+++ (+++ = pIC50 ≥5.50)	CC1(C)CN(c2cc(Br)cc3cncn23)CCN1S(C)(=O)=O [Compound 1021]	IDO1 Enzyme, pIC50 [1]: 6.8; HEK293 cell, pIC50 [2]: 6.7
–	–	+/− (+/− = pIC50 <4.00)	+ (+ = pIC50 4.00-4.49)	O=C(O)N1CCC(c2cc(C(F)(F)F)cc3cncn23)CC1 [Compound 1020]	hTDO biochemical assay, pIC50 [5]: ++ (++ = pIC50 4.50-5.49); hIDO biochemical assay, pIC50 [6]: + (+ = pIC50 4.00-4.49)

The remaining lines, values behind:

Compound	IC50 [1] [nM]	IC50 [2] [nM]	SKOV3 Kynurenine cell based assay, pIC50 [3]	A172 Kynurenine cell based assay, pIC50 [4]	also measured
Cn1c(N)c(N2CCN(c3cc(C(F)(F)F)cc4cncn34)CC2)c(=O)n(C)c1=O [Compound 1037, 6-amino-1,3-dimethyl-5-{4-[7-(trifluoromethyl)imidazo[1,5-a]pyridin-5-yl]piperazin-1-yl}pyrimidine-2,4(1H,3H)-dione]	794	3980	–	–	–
FC(F)(F)c1cc(N2CCC(n3cnnn3)CC2)n2cncc2c1 [Compound 1038, 5-[4-(1H-tetrazol-1-yl)piperidin-1-yl]-7-(trifluoromethyl)imidazo[1,5-a]pyridine]	1000	794	–	–	–
Cc1noc(C2CCN(c3cc(C(F)(F)F)cc4cncn34)CC2)c1C(N)=O [Compound 1035, 3-methyl-5-{1-[7-(trifluoromethyl)imidazo[1,5-a]pyridin-5-yl]piperidin-4-yl}isoxazole-4-carboxamide]	251	501	–	–	–
CNC(=O)c1c(C)noc1C1CCN(c2cc(C(F)(F)F)cc3cncn23)CC1 [Compound 1036, N,3-dimethyl-5-{1-[7-(trifluoromethyl)imidazo[1,5-a]pyridin-5-yl]piperidin-4-yl}isoxazole-4-carboxamide]	398	2510	–	–	–
